Source: PubChem BioAssay (NCI)
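In this assay, cells in 96-well plates receive the compound at five concentrations for 48 hours. Endpoints are linearly interpolated between the surrounding concentrations. TGI denotes the concentration required for complete inhibition of growth.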

Assays:
Assay in all cases: NCI-60 cell line screen, 48 h
786-0 renal = test system: 786-0 renal
A498 renal = test system: A498 renal
A549 NSCLC = test system: A549 NSCLC
ACHN renal = test system: ACHN renal
BT-549 breast = test system: BT-549 breast
CAKI-1 renal = test system: CAKI-1 renal
COLO 205 colon = test system: COLO 205 colon
DU-145 prostate = test system: DU-145 prostate
EKVX NSCLC = test system: EKVX NSCLC
HCC-2998 colon = test system: HCC-2998 colon
HCT-116 colon = test system: HCT-116 colon
HCT-15 colon = test system: HCT-15 colon
HL-60(TB) leukemia = test system: HL-60(TB) leukemia
HOP-62 NSCLC = test system: HOP-62 NSCLC
HOP-92 NSCLC = test system: HOP-92 NSCLC
HS 578T breast = test system: HS 578T breast
HT29 colon = test system: HT29 colon
IGROV1 ovarian = test system: IGROV1 ovarian
K-562 leukemia = test system: K-562 leukemia
KM12 colon = test system: KM12 colon
LOX IMVI melanoma = test system: LOX IMVI melanoma
M14 melanoma = test system: M14 melanoma
MALME-3M melanoma = test system: MALME-3M melanoma
MCF7 breast = test system: MCF7 breast
MDA-MB-231 breast = test system: MDA-MB-231 breast
MDA-MB-435 = test system: MDA-MB-435
MDA-N = test system: MDA-N
MOLT-4 leukemia = test system: MOLT-4 leukemia
NCI-H226 lung = test system: NCI-H226 lung
NCI-H23 lung = test system: NCI-H23 lung
NCI-H460 lung = test system: NCI-H460 lung
NCI-H522 lung = test system: NCI-H522 lung
NCI/ADR-RES ovarian = test system: NCI/ADR-RES ovarian
OVCAR-3 ovarian = test system: OVCAR-3 ovarian
OVCAR-4 ovarian = test system: OVCAR-4 ovarian
OVCAR-5 ovarian = test system: OVCAR-5 ovarian
OVCAR-8 ovarian = test system: OVCAR-8 ovarian
PC-3 prostate = test system: PC-3 prostate
RPMI-8226 leukemia = test system: RPMI-8226 leukemia
RXF 393 renal = test system: RXF 393 renal
SF-268 CNS = test system: SF-268 CNS
SF-295 CNS = test system: SF-295 CNS
SF-539 CNS = test system: SF-539 CNS
SK-MEL-2 melanoma = test system: SK-MEL-2 melanoma
SK-MEL-28 melanoma = test system: SK-MEL-28 melanoma
SK-MEL-5 melanoma = test system: SK-MEL-5 melanoma
SK-OV-3 ovarian = test system: SK-OV-3 ovarian
SN12C renal = test system: SN12C renal
SNB-19 CNS = test system: SNB-19 CNS
SNB-75 CNS = test system: SNB-75 CNS
SR leukemia = test system: SR leukemia
SW-620 colon = test system: SW-620 colon
TK-10 renal = test system: TK-10 renal
U251 CNS = test system: U251 CNS
UACC-257 melanoma = test system: UACC-257 melanoma
UACC-62 melanoma = test system: UACC-62 melanoma
UO-31 renal = test system: UO-31 renal
CCRF-CEM leukemia = test system: CCRF-CEM leukemia

O=c1c2cc(I)ccc2nc(Sc2ccc([N+](=O)[O-])cc2[N+](=O)[O-])n1Cc1ccccc1
TGI (786-0 renal): 2.25 µM | TGI (A498 renal): 21.3 µM | TGI (A549 NSCLC): > 85 µM | TGI (ACHN renal): 26.1 µM | TGI (BT-549 breast): 9.46 µM | TGI (CAKI-1 renal): 24.7 µM | TGI (COLO 205 colon): 17.2 µM | TGI (DU-145 prostate): 12.7 µM | TGI (EKVX NSCLC): 17.4 µM | TGI (HCC-2998 colon): 11.1 µM | TGI (HCT-116 colon): 2.71 µM | TGI (HCT-15 colon): 3.82 µM | TGI (HL-60(TB) leukemia): 5.5 µM | TGI (HOP-62 NSCLC): 12.3 µM | TGI (HOP-92 NSCLC): 8.56 µM | TGI (HS 578T breast): > 36.1 µM | TGI (HT29 colon): 13.6 µM | TGI (IGROV1 ovarian): 6.42 µM | TGI (K-562 leukemia): > 100 µM | TGI (KM12 colon): > 31.2 µM | TGI (LOX IMVI melanoma): 2.89 µM | TGI (M14 melanoma): 5.31 µM | TGI (MALME-3M melanoma): 17.1 µM | TGI (MCF7 breast): 5.59 µM | TGI (MDA-MB-231 breast): 16.9 µM | TGI (MDA-MB-435): 5.35 µM | TGI (MDA-N): 3.89 µM | TGI (MOLT-4 leukemia): > 100 µM | TGI (NCI-H226 lung): 10.3 µM | TGI (NCI-H23 lung): 14.2 µM | TGI (NCI-H460 lung): 29 µM | TGI (NCI-H522 lung): 2.57 µM | TGI (NCI/ADR-RES ovarian): 5.44 µM | TGI (OVCAR-3 ovarian): 4.87 µM | TGI (OVCAR-4 ovarian): 15.6 µM | TGI (OVCAR-5 ovarian): 22.7 µM | TGI (OVCAR-8 ovarian): 4.58 µM | TGI (PC-3 prostate): 13.8 µM | TGI (RPMI-8226 leukemia): > 20.1 µM | TGI (RXF 393 renal): 12.4 µM | TGI (SF-268 CNS): 3.77 µM | TGI (SF-295 CNS): 35.3 µM | TGI (SF-539 CNS): 4.09 µM | TGI (SK-MEL-2 melanoma): 3.73 µM | TGI (SK-MEL-28 melanoma): 35.2 µM | TGI (SK-MEL-5 melanoma): 17.8 µM | TGI (SK-OV-3 ovarian): > 56.8 µM | TGI (SN12C renal): 2.95 µM | TGI (SNB-19 CNS): 20.4 µM | TGI (SNB-75 CNS): 16.7 µM | TGI (SR leukemia): > 100 µM | TGI (SW-620 colon): > 100 µM | TGI (TK-10 renal): 20.7 µM | TGI (U251 CNS): 13.2 µM | TGI (UACC-257 melanoma): 15.4 µM | TGI (UACC-62 melanoma): 7.24 µM | TGI (UO-31 renal): 4.13 µM

CC(=O)/C=c1\[nH]/c(=C\C=C\c2ccccc2)c(=O)n1/C=C1\C(=O)Oc2ccccc2C1=O
TGI (786-0 renal): > 100 µM | TGI (A498 renal): > 100 µM | TGI (A549 NSCLC): > 100 µM | TGI (ACHN renal): > 100 µM | TGI (BT-549 breast): > 100 µM | TGI (CAKI-1 renal): > 100 µM | TGI (CCRF-CEM leukemia): > 100 µM | TGI (COLO 205 colon): > 100 µM | TGI (DU-145 prostate): > 100 µM | TGI (EKVX NSCLC): > 100 µM | TGI (HCT-116 colon): > 100 µM | TGI (HCT-15 colon): > 100 µM | TGI (HL-60(TB) leukemia): > 100 µM | TGI (HOP-92 NSCLC): > 100 µM | TGI (HS 578T breast): > 100 µM | TGI (HT29 colon): > 100 µM | TGI (IGROV1 ovarian): > 100 µM | TGI (K-562 leukemia): > 100 µM | TGI (KM12 colon): > 100 µM | TGI (LOX IMVI melanoma): > 100 µM | TGI (M14 melanoma): > 100 µM | TGI (MALME-3M melanoma): > 100 µM | TGI (MCF7 breast): > 100 µM | TGI (MDA-MB-231 breast): > 100 µM | TGI (MDA-MB-435): > 100 µM | TGI (MDA-N): > 100 µM | TGI (MOLT-4 leukemia): > 100 µM | TGI (NCI-H226 lung): > 100 µM | TGI (NCI-H23 lung): > 100 µM | TGI (NCI-H522 lung): > 100 µM | TGI (NCI/ADR-RES ovarian): > 100 µM | TGI (OVCAR-3 ovarian): > 100 µM | TGI (OVCAR-4 ovarian): > 100 µM | TGI (OVCAR-5 ovarian): > 100 µM | TGI (OVCAR-8 ovarian): > 100 µM | TGI (PC-3 prostate): > 100 µM | TGI (RPMI-8226 leukemia): > 100 µM | TGI (SF-268 CNS): > 100 µM | TGI (SF-539 CNS): > 100 µM | TGI (SK-MEL-2 melanoma): > 100 µM | TGI (SK-MEL-28 melanoma): > 100 µM | TGI (SK-MEL-5 melanoma): > 100 µM | TGI (SK-OV-3 ovarian): > 100 µM | TGI (SNB-19 CNS): > 100 µM | TGI (SNB-75 CNS): > 100 µM | TGI (SR leukemia): > 100 µM | TGI (SW-620 colon): > 100 µM | TGI (TK-10 renal): > 100 µM | TGI (U251 CNS): > 100 µM | TGI (UACC-257 melanoma): > 100 µM | TGI (UACC-62 melanoma): > 100 µM | TGI (UO-31 renal): > 100 µM
